Assay results as given in patent US5393667A, “Eucaryotic NAD cyclases” (priority 1993, dated 1995).

Key:
[1] = test system: rat liver NAD glycohydrolase; conditions: Moss et al., J. Biol. Chem. 257:5755-5759, 1982; cited from earlier work
[2] = biological target: T1, Aplysia californica NAD cyclase (ovotestis NADase), purified, wild type (Aplysia californica, UniProt P29241); assay: NAD cyclase velocity vs. NAD concentration ([14C]-nicotinamide release); assay type: biochemical
T1 construct: from tissue; host or cells: ovotestis (Aplysia)
T1 sequence (P29241 25-282): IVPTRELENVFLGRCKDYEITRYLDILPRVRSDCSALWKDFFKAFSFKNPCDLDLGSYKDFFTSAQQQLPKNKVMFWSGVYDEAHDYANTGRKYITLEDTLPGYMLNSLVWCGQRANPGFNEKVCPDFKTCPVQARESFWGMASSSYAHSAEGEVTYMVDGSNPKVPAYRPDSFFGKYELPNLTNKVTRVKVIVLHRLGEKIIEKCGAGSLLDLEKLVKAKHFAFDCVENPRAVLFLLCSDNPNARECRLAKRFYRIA
Description: (§1) Referring to FIG. 4, various concentrations (0.05 to 5.0 mM) of [carbonyl-^14 C]NAD (specific activity=1.6 nCi/nmol) and 5×10^-9 M ovotestis NADase were incubated in 300 mM potassium phosphate buffer (pH 7.0) at 30° C. The amount of NAD cleaved during the incubation period was determined by measuring the amount of [^14 C]-nicotinamide produced. The data was fitted to the equation f=a+b*exp(-c*x) using a nonlinear curve fitting program (SigmaPlot, version 4.0). The estimated Km of the NAD Cyclase is 0.7 mM and the Vmax is approximately 32 nmoles/minute/35 ng enzyme. This corresponds to a turnover rate of about 27,000 moles NAD/minute/mole of NAD Cyclase at 30° C.

[3] = biological target: T2, eucaryotic NAD cyclases of this invention (example: Aplysia californica NAD cyclase) (Aplysia californica, UniProt P29241); assay: Resistance of NAD cyclase to inhibitors of eucaryotic NADases; assay type: biochemical; conditions: for inhibition of NAD cyclase by inhibitor: concentration not given
T2 sequence (P29241 25-282): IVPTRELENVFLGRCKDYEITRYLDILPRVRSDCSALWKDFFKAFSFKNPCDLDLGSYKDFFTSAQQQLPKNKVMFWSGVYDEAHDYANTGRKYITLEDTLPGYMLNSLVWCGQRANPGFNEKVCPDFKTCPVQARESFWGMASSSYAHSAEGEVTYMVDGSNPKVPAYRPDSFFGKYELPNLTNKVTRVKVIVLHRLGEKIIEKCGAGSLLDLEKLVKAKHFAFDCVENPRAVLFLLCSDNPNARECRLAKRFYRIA

[4] = substrate: NC(=O)c1ccc[n+]([C@@H]2O[C@H](COP(=O)([O-])OP(=O)(O)OC[C@H]3O[C@@H](n4cnc5c(N)ncnc54)[C@H](O)[C@@H]3O)[C@@H](O)[C@H]2O)c1; assay: NAD cyclase velocity vs. NAD concentration ([14C]-nicotinamide release); assay type: biochemical, Aplysia californica; conditions: other: 0.05 to 5.0 mM [carbonyl-14C]NAD, 5x10^-9 M enzyme, 300 mM potassium phosphate pH 7.0, 30° C., estimated by nonlinear curve fit
Description: as §1

Question: What does the source list for `NC(=O)c1ccc[n+]([C@@H]2O[C@H](COP(=O)([O-])OP(=O)(O)OC[C@H]3O[C@@H](n4cnc5c(N)ncnc54)[C@H](O)[C@@H]3O)[C@@H](O)[C@H]2O)c1` [NAD, nicotinamide adenine dinucleotide]?
Answer: Km [1]: ~18 µM; Vmax ([2]; 300 mM potassium phosphate pH 7.0, 30° C.): approximately 32 nmoles/minute/35 ng enzyme; turnover rate ([2]; at 30° C., corresponds to Vmax): about 27,000 moles NAD/minute/mole of NAD Cyclase

Question: Which “inhibition of NAD cyclase by DTT” value ([3]; 1 mM DTT) does the source give for `O[C@H](CS)[C@H](O)CS` (racemic) [DTT, dithiothreitol] here?
Answer: resistant

Question: For `NNC(=O)c1ccncc1` [isonicotinic acid hydrazide], which “inhibition of NAD cyclase by inhibitor” value [3] is on record?
Answer: resistant

Question: For `CC(=O)c1ccc[n+]([C@@H]2O[C@H](COP(=O)([O-])OP(=O)(O)OC[C@H]3O[C@@H](n4cnc5c(N)ncnc54)[C@H](O)[C@@H]3O)[C@@H](O)[C@H]2O)c1` [3-acetylpyridine adenine dinucleotide], which “inhibition of NAD cyclase by inhibitor” value [3] is on record?
Answer: resistant

B1: Aplysia californica NAD cyclase (ovotestis NADase), purified, wild type (Aplysia californica) (protein)
chain: IVPTRELENVFLGRCKDYEITRYLDILPRVRSDCSALWKDFFKAFSFKNPCDLDLGSYKDFFTSAQQQLPKNKVMFWSGVYDEAHDYANTGRKYITLEDTLPGYMLNSLVWCGQRANPGFNEKVCPDFKTCPVQARESFWGMASSSYAHSAEGEVTYMVDGSNPKVPAYRPDSFFGKYELPNLTNKVTRVKVIVLHRLGEKIIEKCGAGSLLDLEKLVKAKHFAFDCVENPRAVLFLLCSDNPNARECRLAKRFYRIA
notes: 5×10^-9 M ovotestis NADase were incubated in 300 mM potassium phosphate buffer; from tissue; host or cells: ovotestis (Aplysia)
Question: With B1 as the molecule, how does the Km [4] read?
Answer: 700 µM
